Experimental data as given in ChEMBL document CHEMBL6078642, “Design, Synthesis, and Activity Evaluation of BRD4 PROTAC Based on Alkenyl Oxindole-DCAF11 Pair” (J Med Chem, 2024).
Active and inactive are the calls of the source. No cut-off for these calls is given here.

Assays:
DCAF11-BRD4 [1] = molecular target: T1, DCAF11-BRD4 (Homo sapiens, UniProt O60885+Q8TEB1); test: PROTAC activity at DCAF11/BRD4 BD1 domain (unknown origin) expressed in HEK293T cells assessed as induction of BRD4 degradation at 1 uM incubated for 12 hrs by Dual fluorescence reporter cell high content imaging analysis relative to control; type: cell-based
HEK293T = test: Induction of BRD4 BD1 domain (unknown origin) degradation expressed in DCAF11 knockout HEK293T cells assessed as decrease in red fluorescence at 1 uM incubated for 12 hrs by dual fluorescence reporter cell based high content imaging analysis; settings: Homo sapiens
MDA-MB-231 = test: Antiproliferative activity against human MDA-MB-231 cells assessed as reduction in cell viability incubated for 2 days by CCK8 assay; type: functional, cell-based; settings: MDA-MB-231, 48 h
MDA-MB-468 = test: Antiproliferative activity against human MDA-MB-468 cells assessed as reduction in cell viability incubated for 2 days by CCK8 assay; type: functional, cell-based; settings: MDA-MB-468, 48 h
DCAF11-BRD4 [2] = molecular target: T1, DCAF11-BRD4; test: PROTAC activity at DCAF11/BRD4 in human MDA-MB-231 cells assessed as induction of BRD4 degradation at 10 to 100 nM incubated for 1 hrs by immunoblot analysis; type: cell-based; settings: dose 10-100 nM

T1 sequence (Q8TEB1 whole entry, looked up, other chains not shown, the tested form may be a part): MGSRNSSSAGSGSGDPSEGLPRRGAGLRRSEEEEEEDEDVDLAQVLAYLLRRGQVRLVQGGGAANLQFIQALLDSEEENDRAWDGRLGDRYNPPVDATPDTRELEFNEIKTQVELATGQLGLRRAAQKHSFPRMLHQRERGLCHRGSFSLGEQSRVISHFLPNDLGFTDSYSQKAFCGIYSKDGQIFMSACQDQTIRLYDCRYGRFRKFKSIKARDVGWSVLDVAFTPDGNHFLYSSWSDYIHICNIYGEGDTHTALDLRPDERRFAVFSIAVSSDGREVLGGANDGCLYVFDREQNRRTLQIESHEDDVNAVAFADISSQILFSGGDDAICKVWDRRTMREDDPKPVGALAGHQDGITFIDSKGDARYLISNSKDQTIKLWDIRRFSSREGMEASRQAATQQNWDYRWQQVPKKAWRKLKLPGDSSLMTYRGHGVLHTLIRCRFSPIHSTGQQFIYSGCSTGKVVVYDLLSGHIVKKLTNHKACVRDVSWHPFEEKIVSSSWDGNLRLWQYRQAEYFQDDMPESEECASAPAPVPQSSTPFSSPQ

Activity (DCAF11-BRD4 [1]) [%] | IC50 (MDA-MB-231) [nM] | IC50 (MDA-MB-468) [nM] | Activity (DCAF11-BRD4 [2]) | Compound | Activity (HEK293T)
> 35 |  |  |  | Cc1ccc(OCC(=O)NCCOCCOCCOCCOCCNC(=O)C[C@@H]2N=C(c3ccc(Cl)cc3)c3c(sc(C)c3C)-n3c(C)nnc32)c(/C=C2/C(=O)Nc3cc(C(F)(F)F)ccc32)c1 (stereo in doubt) | inactive
> 35 |  |  | Active | Cc1ccc(OCC(=O)NCCCOCCOCCOCCCNC(=O)C[C@@H]2N=C(c3ccc(Cl)cc3)c3c(sc(C)c3C)-n3c(C)nnc32)c(/C=C2\C(=O)Nc3ccc(Cl)cc32)c1 (stereo in doubt) | inactive

The remaining lines, values behind:

Compound | Activity (DCAF11-BRD4 [1]) [%] | IC50 (MDA-MB-231) [nM] | IC50 (MDA-MB-468) [nM] | Activity (DCAF11-BRD4 [2]) | Activity (HEK293T)
Cc1sc2c(c1C)C(c1ccc(Cl)cc1)=N[C@@H](CC(=O)NCCCOCCOCCOCCCNC(=O)COc1ccc(/C=C3/C(=O)Nc4ccc(F)cc43)cc1)c1nnc(C)n1-2 (stereo in doubt) | > 35 |  |  |  | inactive
Cc1sc2c(c1C)C(c1ccc(Cl)cc1)=N[C@@H](CC(=O)NCCCOc1c(Br)cc(/C=C3/C(=O)Nc4cc(C(F)(F)F)ccc43)cc1Br)c1nnc(C)n1-2 (stereo in doubt) | > 35 |  |  |  | inactive
Cc1sc2c(c1C)C(c1ccc(Cl)cc1)=N[C@@H](CC(=O)NCCCOCCOCCOCCCNC(=O)COc1ccc(/C=C3/C(=O)Nc4ccc(Cl)cc43)cc1)c1nnc(C)n1-2 (stereo in doubt) | > 35 |  |  |  | 
Cc1ncsc1-c1ccc(CNC(=O)[C@@H]2C[C@@H](O)CN2C(=O)[C@@H](NC(=O)COCCOCCOCCNC(=O)C[C@@H]2N=C(c3ccc(Cl)cc3)c3c(sc(C)c3C)-n3c(C)nnc32)C(C)(C)C)cc1 |  | 20 | 1200 |  | 
Cc1sc2c(c1C)C(c1ccc(Cl)cc1)=N[C@@H](CC(=O)NCCCOc1cccc(/C=C3/C(=O)Nc4cc(C(F)(F)F)ccc43)c1)c1nnc(C)n1-2 | > 35 |  |  |  | inactive
Cc1ccc(OCC(=O)NCCCOCCOCCOCCCNC(=O)C[C@@H]2N=C(c3ccc(Cl)cc3)c3c(sc(C)c3C)-n3c(C)nnc32)c(/C=C2\C(=O)Nc3ccc(F)cc32)c1 (stereo in doubt) | > 35 |  |  | Active | inactive
